Where a name gives a salt, the structure may show the parent alone.
The compounds below were run against Autotaxin (Homo sapiens (Human), UniProt Q13822) (assay: Autotaxin LPC Cascade Assay). Conditions: Autotaxin 5 nM, LPC 100 μM, choline oxidase/HRP/Ampliflu Red fluorescence read-out, 2% DMSO, RT; read-out: IC50 ATX Activity.
Format: biochemical
In short: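 Choline liberated from LPC by autotaxin during 1 h, after a 10-min RT compound preincubation, was converted through choline oxidase/HRP to a fluorescent Ampliflu Red product.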

Row | SMILES | IC50 [nM]
1 | CC(C)[C@@H](NC(=O)c1cc(C(F)(F)F)ccc1F)C(=O)N1CCC2(CC1)C(=O)N(C)C(=O)N2c1ccc(OCC2COC2)cc1 [Example 83, (R)-2-Fluoro-N-(3-methyl-1-(3-methyl-1-(4-(oxetan-3-ylmethoxy)phenyl)-2,4-dioxo-1,3,8-triazaspiro[4.5]decan-8-yl)-1-oxobutan-2-yl)-5-(trifluoromethyl)benzamide] | < 500
2 | CC(C)[C@@H](NC(=O)c1cc(C(F)(F)F)ccc1F)C(=O)N1CCC2(CC1)C(=O)N(C)C(=O)N2c1ccc(OCCO)cc1 [Example 84, (R)-2-Fluoro-N-(1-(1-(4-(2-hydroxyethoxy)phenyl)-3-methyl-2,4-dioxo-1,3,8-triazaspiro[4.5]decan-8-yl)-3-methyl-1-oxobutan-2-yl)-5-(trifluoromethyl)benzamide] | < 500
3 | CC(C)[C@@H](NC(=O)c1cc(C(F)(F)F)ccc1F)C(=O)N1CCC2(CC1)C(=O)N(C)C(=O)N2c1ccc(NC2CNC2)cc1 [Example 86, (R)—N-(1-(1-(4-(Azetidin-3-ylamino)phenyl)-3-methyl-2,4-dioxo-1,3,8-triazaspiro[4.5]decan-8-yl)-3-methyl-1-oxobutan-2-yl)-2-fluoro-5-(trifluoromethyl)benzamide trifluoroacetic Acid Salt] | ≥ 1000
4 | CC(C)[C@@H](NC(=O)c1cc(C(F)(F)F)ccc1F)C(=O)N1CCC2(CC1)C(=O)N(C)C(=O)N2c1ccc(NC2COC2)cc1 [Example 87, (R)-2-Fluoro-N-(3-methyl-1-(3-methyl-1-(4-(oxetan-3-ylamino)phenyl)-2,4-dioxo-1,3,8-triazaspiro[4.5]decan-8-yl)-1-oxobutan-2-yl)-5-(trifluoromethyl)benzamide] | ≥ 1000
5 | CC(C)[C@@H](NC(=O)c1cc(C(F)(F)F)ccc1F)C(=O)N1CCC2(CC1)C(=O)N(C)C(=O)N2Cc1ccc(C#N)cc1 [Example 88, (R)—N-(1-(1-(4-Cyanobenzyl)-3-methyl-2,4-dioxo-1,3,8-triazaspiro[4.5]decan-8-yl)-3-methyl-1-oxobutan-2-yl)-2-fluoro-5-(trifluoromethyl)benzamide] | < 500
6 | CC(C)[C@@H](NC(=O)c1cc(C(F)(F)F)ccc1F)C(=O)N1CCC2(CC1)C(=O)N(C)C(=O)N2Cc1ccccc1 [Example 89, (R)—N-(1-(1-Benzyl-3-methyl-2,4-dioxo-1,3,8-triazaspiro[4.5]decan-8-yl)-3-methyl-1-oxobutan-2-yl)-2-fluoro-5-(trifluoromethyl)benzamide] | < 500
7 | CC(C)[C@@H](NC(=O)c1cc(C(F)(F)F)ccc1F)C(=O)N1CCC2(CC1)C(=O)N(C)C(=O)N2Cc1ccc(F)cc1 [Example 90, (R)-2-Fluoro-N-(1-(1-(4-fluorobenzyl)-3-methyl-2,4-dioxo-1,3,8-triazaspiro[4.5]decan-8-yl)-3-methyl-1-oxobutan-2-yl)-5-(trifluoromethyl)benzamide] | < 500
8 | COc1ccc(CN2C(=O)N(C)C(=O)C23CCN(C(=O)[C@H](NC(=O)c2cc(C(F)(F)F)ccc2F)C(C)C)CC3)cc1 [Example 91, (R)-2-Fluoro-N-(1-(1-(4-methoxybenzyl)-3-methyl-2,4-dioxo-1,3,8-triazaspiro[4.5]decan-8-yl)-3-methyl-1-oxobutan-2-yl)-5-(trifluoromethyl)benzamide] | < 500
9 | CC(C)[C@@H](NC(=O)c1cc(C(F)(F)F)ccc1F)C(=O)N1CCC2(CC1)C(=O)N(C)C(=O)N2C(C)c1ccccc1 (stereo partly drawn) [Example 92, 2-Fluoro-N-((2R)-3-methyl-1-(3-methyl-2,4-dioxo-1-(1-phenylethyl)-1,3,8-triazaspiro[4.5]decan-8-yl)-1-oxobutan-2-yl)-5-(trifluoromethyl)benzamide] | 500 to 1000
10 | CC(C)[C@@H](NC(=O)c1cc(C(F)(F)F)ccc1F)C(=O)N1CCC2(CC1)C(=O)N(C)C(=O)N2Cc1ccc(S(C)(=O)=O)cc1 [Example 93, (R)-2-Fluoro-N-(3-methyl-1-(3-methyl-1-(4-(methylsulfonyl)benzyl)-2,4-dioxo-1,3,8-triazaspiro[4.5]decan-8-yl)-1-oxobutan-2-yl)-5-(trifluoromethyl)benzamide] | ≥ 1000
11 | COc1cc(CN2C(=O)N(C)C(=O)C23CCN(C(=O)[C@H](NC(=O)c2cc(C(F)(F)F)ccc2F)C(C)C)CC3)ccn1 [Example 94, (R)-2-Fluoro-N-(1-(1-((2-methoxypyridin-4-yl)methyl)-3-methyl-2,4-dioxo-1,3,8-triazaspiro[4.5]decan-8-yl)-3-methyl-1-oxobutan-2-yl)-5-(trifluoromethyl)benzamide] | < 500
12 | Cc1cc(CN2C(=O)N(C)C(=O)C23CCN(C(=O)[C@H](NC(=O)c2cc(C(F)(F)F)ccc2F)C(C)C)CC3)ccn1 [Example 95, (R)-2-Fluoro-N-(3-methyl-1-(3-methyl-1-((2-methylpyridin-4-yl)methyl)-2,4-dioxo-1,3,8-triazaspiro[4.5]decan-8-yl)-1-oxobutan-2-yl)-5-(trifluoromethyl)benzamide] | 500 to 1000
13 | CC(C)[C@@H](NC(=O)c1cc(C(F)(F)F)ccc1F)C(=O)N1CCC2(CC1)C(=O)N(C)C(=O)N2Cc1ccc2c(c1)OCCO2 [Example 96, (R)—N-(1-(1-((2,3-Dihydrobenzo[b][1,4]dioxin-6-yl)methyl)-3-methyl-2,4-dioxo-1,3,8-triazaspiro[4.5]decan-8-yl)-3-methyl-1-oxobutan-2-yl)-2-fluoro-5-(trifluoromethyl)benzamide] | < 500
14 | COc1ccc(CN2C(=O)N(C)C(=O)C23CCN(C(=O)[C@H](NC(=O)c2cc(C(F)(F)F)ccc2F)C(C)C)CC3)cn1 [Example 97, (R)-2-Fluoro-N-(1-(1-((6-methoxypyridin-3-yl)methyl)-3-methyl-2,4-dioxo-1,3,8-triazaspiro[4.5]decan-8-yl)-3-methyl-1-oxobutan-2-yl)-5-(trifluoromethyl)benzamide] | < 500
15 | CC(C)[C@@H](NC(=O)c1cc(C(F)(F)F)ccc1F)C(=O)N1CCC2(CC1)C(=O)N(C)C(=O)N2Cc1ccc2[nH]ncc2c1 [Example 98, (R)—N-(1-(1-((1H-Indazol-5-yl)methyl)-3-methyl-2,4-dioxo-1,3,8-triazaspiro[4.5]decan-8-yl)-3-methyl-1-oxobutan-2-yl)-2-fluoro-5-(trifluoromethyl)benzamide] | < 500
16 | CC(C)[C@@H](NC(=O)c1cc(C(F)(F)F)ccc1F)C(=O)N1CCC2(CC1)C(=O)N(C)C(=O)N2Cc1ccc(Cl)cc1 [Example 99, (R)—N-(1-(1-(4-Chlorobenzyl)-3-methyl-2,4-dioxo-1,3,8-triazaspiro[4.5]decan-8-yl)-3-methyl-1-oxobutan-2-yl)-2-fluoro-5-(trifluoromethyl)benzamide] | < 500
17 | CC(C)[C@@H](NC(=O)c1cc(C(F)(F)F)ccc1F)C(=O)N1CCC2(CC1)C(=O)N(C)C(=O)N2Cc1ccc2nccnc2c1 [Example 100, (R)-2-Fluoro-N-(3-methyl-1-(3-methyl-2,4-dioxo-1-(quinoxalin-6-ylmethyl)-1,3,8-triazaspiro[4.5]decan-8-yl)-1-oxobutan-2-yl)-5-(trifluoromethyl)benzamide] | < 500
18 | CC(C)[C@@H](NC(=O)c1cc(C(F)(F)F)ccc1F)C(=O)N1CCC2(CC1)C(=O)N(C)C(=O)N2Cc1cccc(C#N)c1 [Example 101, (R)—N-(1-(1-(3-Cyanobenzyl)-3-methyl-2,4-dioxo-1,3,8-triazaspiro[4.5]decan-8-yl)-3-methyl-1-oxobutan-2-yl)-2-fluoro-5-(trifluoromethyl)benzamide] | < 500
19 | CC(C)[C@@H](NC(=O)c1cc(C(F)(F)F)ccc1F)C(=O)N1CCC2(CC1)C(=O)N(C)C(=O)N2Cc1ccn2ccnc2c1 [Example 102, (R)-2-Fluoro-N-(1-(1-(imidazo[1,2-a]pyridin-7-ylmethyl)-3-methyl-2,4-dioxo-1,3,8-triazaspiro[4.5]decan-8-yl)-3-methyl-1-oxobutan-2-yl)-5-(trifluoromethyl)benzamide] | 500 to 1000
20 | CC(C)[C@@H](NC(=O)c1cc(C(F)(F)F)ccc1F)C(=O)N1CCC2(CC1)C(=O)N(C)C(=O)N2Cc1cccc(S(C)(=O)=O)c1 [Example 103, (R)-2-Fluoro-N-(3-methyl-1-(3-methyl-1-(3-(methylsulfonyl)benzyl)-2,4-dioxo-1,3,8-triazaspiro[4.5]decan-8-yl)-1-oxobutan-2-yl)-5-(trifluoromethyl)benzamide] | 500 to 1000
21 | CC(C)[C@@H](NC(=O)c1cc(C(F)(F)F)ccc1F)C(=O)N1CCC2(CC1)C(=O)N(C)C(=O)N2Cc1cccc(Cl)c1 [Example 104, (R)—N-(1-(1-(3-Chlorobenzyl)-3-methyl-2,4-dioxo-1,3,8-triazaspiro[4.5]decan-8-yl)-3-methyl-1-oxobutan-2-yl)-2-fluoro-5-(trifluoromethyl)benzamide] | < 500
22 | CC(C)[C@@H](NC(=O)c1cc(C(F)(F)F)ccc1F)C(=O)N1CCC2(CC1)C(=O)N(C)C(=O)N2Cc1ccc2oc(=O)n(C)c2c1 [Example 105, (R)-2-Fluoro-N-(3-methyl-1-(3-methyl-1-((3-methyl-2-oxo-2,3-dihydrobenzo[d]oxazol-5-yl)methyl)-2,4-dioxo-1,3,8-triazaspiro[4.5]decan-8-yl)-1-oxobutan-2-yl)-5-(trifluoromethyl)benzamide] | < 500
23 | Cc1nc2ccc(CN3C(=O)N(C)C(=O)C34CCN(C(=O)[C@H](NC(=O)c3cc(C(F)(F)F)ccc3F)C(C)C)CC4)cc2[nH]1 [Example 106, (R)-2-Fluoro-N-(3-methyl-1-(3-methyl-1-((2-methyl-1H-benzo[d]imidazol-6-yl)methyl)-2,4-dioxo-1,3,8-triazaspiro[4.5]decan-8-yl)-1-oxobutan-2-yl)-5-(trifluoromethyl)benzamide] | ≥ 1000
24 | COc1ccc(F)c(CN2C(=O)N(C)C(=O)C23CCN(C(=O)[C@H](NC(=O)c2cc(C(F)(F)F)ccc2F)C(C)C)CC3)c1 [Example 107, (R)-2-Fluoro-N-(1-(1-(2-fluoro-5-methoxybenzyl)-3-methyl-2,4-dioxo-1,3,8-triazaspiro[4.5]decan-8-yl)-3-methyl-1-oxobutan-2-yl)-5-(trifluoromethyl)benzamide] | < 500

— patent US10233182B2, “Substituted spirocyclic inhibitors of autotaxin” (X-Rx, Inc., priority 2014, dated 2019)
